This is an account of results in patent US8952169B2 (Genentech, Inc., priority 2012, dated 2015).

The assay addresses hNav1.7 (Homo sapiens (Human), UniProt Q15858). Description: Tritiated aryl sulfonamide binding to membranes from cells expressing hNav1.7 and the β1 subunit (competitive binding). The conditions noted are these: membranes with hNav1.7 and β1 subunit; [3H]compound displacement, 18 h, room temperature; read-out: NaV1.7 395 Memb Binding (IC50). Here is the method: Tritiated Aryl Sulfonamide Binding to Membranes Isolated from Cells that Heterologously Express hNav1.7 and the β1 Subunit
Preparation of membranes containing recombinantly expressed sodium channels: Frozen recombinant cell pellets were thawed on ice and diluted to 4 times the cell pellet weight with ice cold 50 mM Tris HCl, pH 7.4 buffer. The cell suspensions were homogenized on ice using a motorized glass dounce homogeniser. Homogenates were further diluted 8.4 times with ice cold 50 mM Tris HCl, pH 7.4 buffer and then centrifuged at 200×g at 4° C. for 15 min. The supernatants were collected and centrifuged at 10000×g at 4° C. for 50 min. The pellets were then re-suspended in 100 mM NaCl, 20 mM Tris HCl, pH 7.4 buffer containing 1% v/v protease inhibitors (Calbiochem) and re-homogenized on ice. The homogenized membranes were then processed through a syringe equipped with a 26 gauge needle. Protein concentrations were determined by Bradford Assay and the membranes were stored at −80° C.
Radioligand Binding Studies: Saturation experiments. A representative compound of formula (I) was tritiated. Three tritiums were incorporated in place of methyl hydrogens to generate [^3H]compound. Binding of this radioligand was preformed in 5 mL borosilicate glass test tubes at room temperature. Binding was initiated by adding membranes to increasing concentrations of [^3H]compound in 100 mM NaCl, 20 mM Tris HCl, pH 7.4 buffer containing 0.01% w/v bovine serum albumin (BSA) for 18 h. Non-specific binding was determined in the presence of 1 μM unlabelled compound. After 18 h, the reactants were filtered through GF/C glass fiber filters presoaked in 0.5% w/v polyethylene imine. […] [^3H]compound bound to filters was quantified by liquid scintillation counting.
Competitive binding experiments. Binding reactions were preformed in 96-well polypropylene plates at room temperature for 18 h. In 360 μL, membranes were incubated with 100 μM [^3H]compound and increasing concentrations of Test Compound. Non-specific binding was defined in the presence of 1 μM unlabelled compound. Reactions were transferred and filtered through 96-well glass fiber/C filter plates presoaked with 0.5% polyethylene imine. The filtered reactions were washed 5 times with 200 L ice cold buffer containing 0.25% BSA. Bound radioactivity was determined by liquid scintillation counting.
Data Analysis: For saturation experiments, non-specific binding was subtracted from total binding to provide specific binding and these values were recalculated in terms of pmol ligand bound per mg protein. Saturation curves were constructed and dissociation constants were calculated using the single site ligand binding model: Beq=(Bmax*X)/(X+Kd), where Beq is the amount of ligand bound at equilibrium, Bmax is the maximum receptor density, Kd is the dissociation constant for the ligand, and X is the free ligand concentration.

As a reminder, the IC50 is the concentration that inhibits the measured activity by half.

Chain of hNav1.7 (Q15858 whole entry, looked up): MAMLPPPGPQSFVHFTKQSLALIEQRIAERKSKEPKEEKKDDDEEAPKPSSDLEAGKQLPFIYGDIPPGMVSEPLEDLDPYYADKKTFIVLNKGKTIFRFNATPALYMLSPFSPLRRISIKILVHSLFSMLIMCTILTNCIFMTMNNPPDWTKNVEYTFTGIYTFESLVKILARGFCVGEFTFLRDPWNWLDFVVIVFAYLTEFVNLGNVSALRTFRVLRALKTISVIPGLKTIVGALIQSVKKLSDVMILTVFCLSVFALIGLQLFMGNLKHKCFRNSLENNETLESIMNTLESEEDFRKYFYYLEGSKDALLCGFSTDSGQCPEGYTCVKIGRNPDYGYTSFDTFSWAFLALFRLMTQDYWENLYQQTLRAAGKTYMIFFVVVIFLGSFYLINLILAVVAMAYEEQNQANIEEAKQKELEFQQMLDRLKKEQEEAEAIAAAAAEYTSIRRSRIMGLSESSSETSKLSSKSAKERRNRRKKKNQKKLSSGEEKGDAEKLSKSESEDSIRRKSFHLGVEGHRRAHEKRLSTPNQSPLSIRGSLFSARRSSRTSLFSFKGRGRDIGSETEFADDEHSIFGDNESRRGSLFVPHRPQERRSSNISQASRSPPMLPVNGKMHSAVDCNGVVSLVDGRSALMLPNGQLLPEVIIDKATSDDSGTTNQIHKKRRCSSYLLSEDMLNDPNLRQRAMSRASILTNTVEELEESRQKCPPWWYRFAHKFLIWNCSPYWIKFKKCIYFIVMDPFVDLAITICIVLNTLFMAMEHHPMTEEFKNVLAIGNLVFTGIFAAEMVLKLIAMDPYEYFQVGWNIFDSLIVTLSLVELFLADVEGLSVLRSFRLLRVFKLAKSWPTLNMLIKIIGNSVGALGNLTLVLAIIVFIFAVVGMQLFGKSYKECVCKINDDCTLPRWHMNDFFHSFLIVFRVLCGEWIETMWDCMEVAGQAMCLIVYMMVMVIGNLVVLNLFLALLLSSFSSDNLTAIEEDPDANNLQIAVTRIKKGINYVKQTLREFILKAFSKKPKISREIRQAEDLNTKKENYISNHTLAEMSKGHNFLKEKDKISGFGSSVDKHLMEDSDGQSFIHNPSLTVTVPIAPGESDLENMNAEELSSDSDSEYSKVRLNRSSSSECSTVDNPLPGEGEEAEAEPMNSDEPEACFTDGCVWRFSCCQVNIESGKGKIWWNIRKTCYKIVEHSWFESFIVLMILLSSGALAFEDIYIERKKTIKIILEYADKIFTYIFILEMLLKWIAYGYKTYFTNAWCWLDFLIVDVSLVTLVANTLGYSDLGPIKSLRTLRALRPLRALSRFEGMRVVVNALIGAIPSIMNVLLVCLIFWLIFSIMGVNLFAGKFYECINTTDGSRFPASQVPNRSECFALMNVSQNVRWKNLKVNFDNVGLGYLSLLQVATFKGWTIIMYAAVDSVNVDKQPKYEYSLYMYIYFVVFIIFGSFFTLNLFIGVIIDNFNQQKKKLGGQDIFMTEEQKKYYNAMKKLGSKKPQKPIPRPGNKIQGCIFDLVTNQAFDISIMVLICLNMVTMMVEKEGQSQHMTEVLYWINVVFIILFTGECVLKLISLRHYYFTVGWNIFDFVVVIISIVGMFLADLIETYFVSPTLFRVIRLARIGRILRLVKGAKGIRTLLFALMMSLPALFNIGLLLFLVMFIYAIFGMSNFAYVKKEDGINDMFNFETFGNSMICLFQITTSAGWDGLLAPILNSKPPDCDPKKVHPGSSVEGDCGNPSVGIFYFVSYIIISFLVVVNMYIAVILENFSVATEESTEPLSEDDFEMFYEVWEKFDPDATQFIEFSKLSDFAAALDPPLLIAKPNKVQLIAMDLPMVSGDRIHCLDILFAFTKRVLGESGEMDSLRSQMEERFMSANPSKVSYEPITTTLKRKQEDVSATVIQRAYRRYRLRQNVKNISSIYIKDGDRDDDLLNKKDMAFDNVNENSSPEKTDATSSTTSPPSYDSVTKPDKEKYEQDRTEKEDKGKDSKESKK
Chain of hNav1.7 (Q07699 whole entry partner, looked up): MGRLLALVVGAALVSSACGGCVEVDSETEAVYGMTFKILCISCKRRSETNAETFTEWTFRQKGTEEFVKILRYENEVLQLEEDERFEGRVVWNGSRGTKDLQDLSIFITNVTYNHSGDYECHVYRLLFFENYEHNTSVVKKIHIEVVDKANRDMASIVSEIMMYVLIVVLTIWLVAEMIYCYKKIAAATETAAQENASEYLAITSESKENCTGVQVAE

On to `CN(C)S(=O)(=O)NC(=O)c1cc(Cl)c(OCC2CCCCC2)cc1F`, for which the IC50 worked out at 322 nM. With `CN(C)S(=O)(=O)NC(=O)c1cc(Cl)c(OCC2CCCC2)cc1F` the figure was 672 nM. With `CS(=O)(=O)NC(=O)c1cc(Cl)c(OCC2(C(F)(F)F)CC2)cc1F` the figure was 603 nM. In the case of `CS(=O)(=O)NC(=O)c1cc(Cl)c(OCC23CC4CC(CC(Cl)(C4)C2)C3)cc1F` it was 53 nM. In the case of `CS(=O)(=O)NC(=O)c1cc(Cl)c(OC[C@H]2CC[C@H](C(F)(F)F)CC2)cc1F`, the IC50 stood at 158 nM. Consider `CC1(C)[C@H]2CC[C@@H](COc3cc(F)c(C(=O)NS(C)(=O)=O)cc3Cl)[C@@H]1C2`, for which the IC50 came to 44 nM. In the case of `COc1ncccc1-c1cc(C(=O)NS(C)(=O)=O)ccc1OCC12CC3CC(CC(C3)C1)C2` it was 803 nM; in that of `CS(=O)(=O)NC(=O)c1cc(Cl)c(OCC2C3CC4CC(C3)CC2C4)cc1F` (stereo not shown), 17 nM. As to `CS(=O)(=O)NC(=O)c1cc(Cl)c(COc2ccc3c(c2)CCCC3)cc1F`, the IC50 was found to be 86 nM.

Regarding `CC1(C)C(COc2ccc(C(=O)NS(C)(=O)=O)cc2Cl)C1(C)C`, the IC50 was 181 nM. With `CC1(C)[C@H]2CC=C(COc3cc(F)c(C(=O)NS(C)(=O)=O)cc3Cl)[C@@H]1C2`, the 50% inhibitory concentration (IC50) came out at 117 nM.

On to `CS(=O)(=O)NC(=O)c1cc(Cl)c(OCC2CC3CCC2C3)cc1F` (stereo not shown), for which the concentration for half-maximal inhibition (IC50) is 80 nM. With `CS(=O)(=O)NC(=O)c1cc(Cl)c(OCC2CCCCCC2)cc1F` the figure was 44 nM; with `CCCCCC12CCC(COc3cc(F)c(C(=O)NS(C)(=O)=O)cc3Cl)(CC1)CC2`, 9 nM; with `CS(=O)(=O)NC(=O)c1cc(Cl)c(O[C@@H]2C[C@@H]3CC[C@H]2C3)cc1F`, 167 nM.

As for `CC1(C)[C@H]2CC[C@](C)(C2)[C@H]1Oc1cc(F)c(C(=O)NS(C)(=O)=O)cc1Cl`, the IC50 is 7120 nM. Consider `CC(C)[C@H]1CC[C@H](C)C[C@@H]1Oc1cc(F)c(C(=O)NS(C)(=O)=O)cc1Cl`, for which the half-maximal inhibitory concentration (IC50) amounted to 1320 nM. With `CS(=O)(=O)NC(=O)c1cc(Cl)c(OC2CC3CCC2C3)cc1F` (stereo not shown) the figure was 491 nM; with `CS(=O)(=O)NC(=O)c1cc(Cl)c(OC2CC3CC2C2CCCC32)cc1F` (stereo not shown), 205 nM. As for `CC(C)[C@H]1CC[C@H](Oc2cc(F)c(C(=O)NS(C)(=O)=O)cc2Cl)CC1`, the half-maximal inhibitory concentration (IC50) came to 57 nM. In the case of `CC1(C)CCCC(Oc2cc(F)c(C(=O)NS(C)(=O)=O)cc2Cl)C1` (stereo not shown) it was 93 nM; in that of `CC1(C)CCC(Oc2cc(F)c(C(=O)NS(C)(=O)=O)cc2Cl)CC1`, 166 nM; in that of `CN(C)S(=O)(=O)NC(=O)c1cc(Cl)c(O[C@@H]2C[C@@H]3CC[C@@]2(C)C3(C)C)cc1F`, 230 nM.

Turning to `CN(C)S(=O)(=O)NC(=O)c1cc(Cl)c(OC2C3CC4CC2CC(Cl)(C4)C3)cc1F` (stereo not shown) [listing 1 of 2 here], the IC50 stood at 283 nM. In the case of `CN(C)S(=O)(=O)NC(=O)c1cc(Cl)c(OCCC2CCCC2)cc1F` it was 542 nM; in that of `CC(C)[C@H]1CC[C@H](Oc2cc(F)c(C(=O)NS(=O)(=O)N(C)C)cc2Cl)CC1`, 138 nM; in that of `CN(C)S(=O)(=O)NC(=O)c1cc(Cl)c(OC2C3CC4CC2CC(Cl)(C4)C3)cc1F` (stereo not shown) [listing 2 of 2 here], 419 nM. In the case of `CS(=O)(=O)NC(=O)c1cc(Cl)c(OC2CCC3(CCCCC3)CC2)cc1F`, the half-maximal inhibitory concentration (IC50) turned out to be 67 nM.

Regarding `CN(C)S(=O)(=O)NC(=O)c1cc(Cl)c(OCCC2CCCCCC2)cc1F`, the half-inhibitory concentration (IC50) came to 210 nM. With `CN(C)S(=O)(=O)NC(=O)c1cc(Cl)c(OCCCC2CCCCC2)cc1F` the figure was 295 nM. With `CN(C)S(=O)(=O)NC(=O)c1cc(Cl)c(OC2CCC3(CCCCC3)CC2)cc1F` the figure was 281 nM; with `CN(C)S(=O)(=O)NC(=O)c1cc(Cl)c(OC2CCC3(CCCC3)CC2)cc1F`, 273 nM. With `CN(C)S(=O)(=O)NC(=O)c1cc(Cl)c(OC2CCC(C(F)(F)F)CC2)cc1F` (stereo not shown) the figure was 3520 nM.

In the case of `CN(C)S(=O)(=O)NC(=O)c1cc(Cl)c(OCCCC2CCCC2)cc1F`, the IC50 was 300 nM. With `CN(C)S(=O)(=O)NC(=O)c1cc(Cl)c(OCCC23CC4CC(CC(C4)C2)C3)cc1F` the figure was 166 nM. With `CS(=O)(=O)NC(=O)c1cc(Cl)c(OCC23CC4CC(C2)C(F)(F)C(C4)C3)cc1F` the figure was 27 nM; with `CS(=O)(=O)NC(=O)c1cc(C2CC2)c(OCC23CC4CC(CC(F)(C4)C2)C3)cc1F`, 3 nM; with `COC12CC3CC(CC(COc4cc(F)c(C(=O)NS(C)(=O)=O)cc4C4CC4)(C3)C1)C2`, 12 nM. In the case of `CS(=O)(=O)NC(=O)c1cc(C2CC2)c(OCC2CCC3(CC2)CC3)cc1F` it was 2 nM; in that of `CS(=O)(=O)NC(=O)c1ccc(OCC23CC4CC(CC(F)(C4)C2)C3)cc1F`, 1640 nM; in that of `Cc1cc(C(=O)NS(=O)(=O)N2CCC2)c(F)cc1OCC12CC3CC(CC(C3)C1)C2`, 10 nM.

On to `CCS(=O)(=O)NC(=O)c1cc(C2CC2)c(OCC23CC4CC(CC(C4)C2)C3)cc1F`, for which the IC50 turned out to be 1 nM. With `CC(C)(C)S(=O)(=O)NC(=O)c1cc(C2CC2)c(OCC23CC4CC(CC(C4)C2)C3)cc1F` the figure was 3 nM. In the case of `CS(=O)(=O)NC(=O)c1ccc(OCC2CCC3(CC2)CC3)cc1F` it was 152 nM; in that of `COCCNS(=O)(=O)NC(=O)c1cc(C2CC2)c(OCC23CC4CC(CC(C4)C2)C3)cc1F`, 12 nM; in that of `CS(=O)(=O)NC(=O)c1cc(Cl)c(O[C@H]2C3CC4CC2C[C@](F)(C4)C3)cc1F`, 120 nM. Turning to `O=C(NS(=O)(=O)N1CCC1)c1cc(C2(O)COC2)c(OCC23CC4CC(CC(C4)C2)C3)cc1F`, the IC50 is 70 nM.

`CNS(=O)(=O)NC(=O)c1ccc(C2C3CC4CC(C3)CC2C4)c(Cl)c1` (stereo not shown): the concentration for half-maximal inhibition (IC50) came to 1700 nM. In the case of `CS(=O)(=O)NC(=O)c1cc(C2CC2)c(OCC2(F)C3CC4CC(C3)CC2C4)cc1F` (stereo not shown) it was 4 nM; in that of `CS(=O)(=O)NC(=O)c1cnc(OCC23CC4(F)CC(F)(CC(F)(C4)C2)C3)c(Cl)c1`, 21500 nM. In the case of `CNS(=O)(=O)NC(=O)c1cc(C2CC2)c(OCC2CCCCC2)cc1F` it was 12 nM; in that of `COCCS(=O)(=O)NC(=O)c1cc(Cl)c(OCC2(C#N)C3CC4CC(C3)CC2C4)cc1F` (stereo not shown), 990 nM; in that of `CNS(=O)(=O)NC(=O)c1cc(Cl)c(OCC2(C#N)C3CC4CC(C3)CC2C4)cc1F` (stereo not shown), 880 nM.

Regarding `CS(=O)(=O)NC(=O)c1cc(Cl)c(OCC2(C#N)C3CC4CC(C3)CC2C4)cc1F` (stereo not shown), the half-maximal inhibitory concentration (IC50) amounted to 310 nM. With `CS(=O)(=O)NC(=O)c1cc(C2CC2)c(OCC2C3CC4CC(C3)CC2C4)cc1F` (stereo not shown) the figure was 3.1 nM; with `COCCS(=O)(=O)NC(=O)c1cc(C2CC2)c(OCC2C3CC4CC(C3)CC2C4)cc1F` (stereo not shown), 5 nM.

Turning to `O=C(NS(=O)(=O)CCO)c1cc(C2CC2)c(OCC2CCCCC2)cc1F`, the half-maximal inhibitory concentration (IC50) stood at 66 nM. In the case of `CS(=O)(=O)NC(=O)c1cc(I)c(OCC23CC4CC(CC(C4)C2)C3)cc1F` it was 8 nM. In the case of `CCOCCS(=O)(=O)NC(=O)c1cc(C2CC2)c(OCC23CC4CC(CC(C4)C2)C3)cc1F` it was 12 nM; in that of `COCCCS(=O)(=O)NC(=O)c1cc(C2CC2)c(OCC23CC4CC(CC(C4)C2)C3)cc1F`, 22 nM. For `CC(C)OCCS(=O)(=O)NC(=O)c1cc(C2CC2)c(OCC23CC4CC(CC(C4)C2)C3)cc1F`, the IC50 came to 40 nM. Regarding `CS(=O)(=O)NC(=O)c1cc(Cl)c(OCC23CC4CC(CC(C4)C2)C3)c(Cl)c1`, the concentration for half-maximal inhibition (IC50) was 540 nM. With `N#CC1CN(S(=O)(=O)NC(=O)c2cc(C3CC3)c(OCC34CC5CC(CC(C5)C3)C4)cc2F)C1` the figure was 12 nM.

Turning to `CS(=O)(=O)NC(=O)c1cc(C2CC2)c(OCC2(C#N)C3CC4CC(C3)CC2C4)cc1F` (stereo not shown), the 50% inhibitory concentration (IC50) was determined as 22 nM. As for `O=C(NS(=O)(=O)N1CC[C@H](O)C1)c1cc(C2CC2)c(OCC2CCCCC2)cc1F`, the IC50 amounted to 160 nM. With `CC(O)c1cc(C(=O)NS(=O)(=O)N2CCC2)c(F)cc1OCC12CC3CC(CC(C3)C1)C2` (stereo not shown) the figure was 12 nM; with `O=C(NS(=O)(=O)N1CCOCC1)c1cc(C2CC2)c(O[C@H]2C3CC4CC2C[C@](Cl)(C4)C3)cc1F`, 16 nM. In the case of `CS(=O)(=O)NC(=O)c1cc(Cl)c(OCC2CCC3(CCC3)CC2)cc1F` it was 17 nM. With `CN(C)S(=O)(=O)NC(=O)c1cc(Cl)c(OCC2C3CC4CC(C3)CC2C4)cc1F` (stereo not shown) the figure was 51 nM; with `CS(=O)(=O)NC(=O)c1cc(Cl)c(OCC2CCC(F)(F)CC2)cc1F`, 558 nM.
